Experimental data published in patent US10487071B2, “Bis-triazole compounds with anti-biofilm and anti-corrosion properties” (Université de Toulon, priority 2015, dated 2019).
Like-named read-outs stand apart in the source and are kept apart here.

Tests used:
[1] = system: Pseudoalteromonas ulvae (TC14); assay: Anti-adhesion test, strain TC14; assay type: cell-based; details: for activity at 200 µM / EC50: Pseudoalteromonas ulvae; for activity at 200 µM: 15 h; for EC50: read-out: EC50 (effective concentration to inhibit 50% of the adhesion)
Method: (§1) Bacterial strains were grown on Väätänen nine-salts solution (VNSS). When the stationary phase was reached, the bacterial suspension was centrifuged. Cells were then diluted in sterile artificial sea water (ASW) and introduced in microtiter plates (sterile black PS; Nunc, Fisher Scientific, France) with the tested compound (at eight concentrations in three replicates) in the presence of three controls: (i) non-specific staining control, (ii) adhesion control, and (iii) positive control. The maximum percentage of solvent (DMSO 2%) used to dilute the tested compound was also tested in triplicate as additional control. After incubation during an optimized adhesion time (moderately 15 h), non-adhered bacteria were eliminated and adhered cells were quantified after SYTO 61 (1 μM) staining. A percentage of inhibition was calculated per well. A sigmoid dose-response curve was obtained by plotting the percentage of inhibition as a function of the log of tested compound concentration, after mean (n=3) and standard deviation (SD) calculation per triplicate for each concentration. EC50 values were then calculated for each compound.
(§2) Pseudoalteromonas ulvae (TC14) was isolated in June 2010 in the Military Harbor of Toulon (Mediterranean Sea, France) as described in F. Brian-Jaisson, A. Ortalo-Magné, L. Guentas-Dombrowsky, F. Armougom, Y. Blache, M. Molmeret, Microb. Ecol., 2014, 68, 94-110.

Paracoccus sp. (4M6) [2] = assay: microbe, parasite or virus in culture; details: for CC50: Paracoccus, read-out: LC50 (necessary concentration to kill 50% of the bacteria), 4M6; for IS: LC50/EC50 (selectivity index), 4M6: strain 4M6
Source text: (§3) The anti-adhesion bioassays and toxicity tests are adapted from those disclosed in M. Camps, J.-F. Briand, L. Guentas-Dombrowsky, G. Culioli, A. Bazire and Y. Blache, Mar. Poll.
(§4) After growth on VNSS, bacterial strains were harvested during the exponential phase. The microtiter plates (sterile transparent PS; Nunc, Fisher Scientific) were filled as described in the Anti-adhesion test method using VNSS instead of ASW to allow bacterial growth. The growth was followed by measuring the turbidity (OD600 nm) every hour during 6 or 7 hours. Then, resazurin (50 μM) was added in all the wells, and fluorescence was measured after 2 h to quantify the percent of bacterial viability. The same methodology used with SYTO 61 was applied to calculate a percent of viability after resazurin staining.

[3] = system: Pseudoalteromonas lipolytica (TC8); assay: microbe, parasite or virus in culture; details: for CC50: Pseudoalteromonas lipolytica, read-out: LC50 (necessary concentration to kill 50% of the bacteria), TC8; for IS: LC50/EC50 (selectivity index), TC8: strain TC8
Source text: as §3, §4

[4] = system: Pseudoalteromonas ulvae (TC14); assay: Toxicity test, strain TC14; assay type: cell-based
Source text: as §2

[5] = Gravimetry (weight loss), corrosion inhibition; details: mild steel in 1N HCl
Method: The corrosion rates were determined by electrochemical impedance spectroscopy measurements and gravimetry.
Weight loss measurements were performed on 2.5×2.0×0.1 cm rectangular mild steel coupons. The mild steel coupons were immersed into non-de-aerated HCl 1N solution in absence and presence of different concentrations of compounds of general formula (I). After the elapsed time, the coupons were taken out, washed, dried and weighed accurately. Experiments were duplicated.
Weight loss experiments were done to confirm the corrosion inhibitive properties of AS164.
The inhibition efficiency, IE (%), was estimated from the weight loss experiments using the following equation:
[formula] wherein CR^o and CR are respectively the corrosion rate in the absence and presence of AS164.

Shewanella sp. (TC11) [6] = assay: Toxicity test, strain TC11; assay type: cell-based
Source text: (§5) Shewanella sp. (TC11) was isolated in June 2010 in the Military Harbor of Toulon (Mediterranean Sea, France) as described in F. Brian-Jaisson, A. Ortalo-Magné, L. Guentas-Dombrowsky, F. Armougom, Y. Blache, M. Molmeret, Microb. Ecol., 2014, 68, 94-110.

Polaribacter sp. (TC5) [7] = assay: Anti-adhesion test, strain TC5; assay type: cell-based; details: for activity at 200 µM: 15 h; for EC50: read-out: EC50 (effective concentration to inhibit 50% of the adhesion)
Method: as §1
(§6) Polaribacter sp. (TC5) was isolated in June 2010 in the Military Harbor of Toulon (Mediterranean Sea, France) as described in F. Brian-Jaisson, A. Ortalo-Magné, L. Guentas-Dombrowsky, F. Armougom, Y. Blache, M. Molmeret, Microb. Ecol., 2014, 68, 94-110.

[8] = system: Pseudoalteromonas lipolytica (TC8); assay: Anti-adhesion test, strain TC8; assay type: cell-based; details: Pseudoalteromonas lipolytica; for activity at 200 µM: 15 h, read-out: % of adhesion at 200 μM, TC8; for EC50: read-out: EC50 (effective concentration to inhibit 50% of the adhesion), TC8
Method: as §3, §1

Polaribacter sp. (TC5) [9] = assay: Toxicity test, strain TC5; assay type: cell-based; details: for CC50: read-out: LC50 (necessary concentration to kill 50% of the bacteria)
Source text: as §6

Paracoccus sp. (4M6) [10] = assay: Anti-adhesion test, strain 4M6; assay type: cell-based; details: Paracoccus; for activity at 200 µM: 15 h, read-out: % of adhesion at 200 μM, 4M6; for EC50: read-out: EC50 (effective concentration to inhibit 50% of the adhesion), 4M6
Method: as §3, §1

[11] = system: marine bacterial strains (TC14, TC8, 4M6, TC5 and TC11); assay: Anti-adhesion test, summary over the strains; assay type: cell-based; details: for EC50 compared with TBTO/ZINEB: comparison with reference biocides
Method: as §1
(§7) In examples 64 and 65, the following marine bacterial strains are used.

Shewanella sp. (TC11) [12] = assay: Anti-adhesion test, strain TC11; assay type: cell-based; details: for activity at 200 µM: 15 h; for EC50: read-out: EC50 (effective concentration to inhibit 50% of the adhesion), strain TC11
Method: as §1, §5

[13] = system: marine bacterial strains (TC14, TC8, 4M6, TC5 and TC11); assay: Toxicity test, summary over the strains; assay type: cell-based; details: comparison with reference biocides
Source text: as §7

[14] = read-out: inhibition of the adhesion of at least four marine bacterial strains
[15] = read-out: inhibition of the adhesion of at least two marine bacterial strains

SMILES | activity at 200 µM ([1]; 200 μM) | EC50 [1] | CC50 (Paracoccus sp. (4M6) [2]) | IS: LC50/EC50 (selectivity index), 4M6 (Paracoccus sp. (4M6) [2]) | CC50 [3] | IS: LC50/EC50 (selectivity index), TC8 [3] | IS: LC50/EC50 (selectivity index), TC14 [4] | LC50 (necessary concentration to kill 50% of the bacteria), TC14 [4] | IE % ([5]; 0.1 ppm) | IE % ([5]; 0.3 ppm) | IE % ([5]; 0.5 ppm) | IE % ([5]; 2 ppm) | IE % ([5]; 10 ppm) | IS: LC50/EC50 (selectivity index), TC11 (Shewanella sp. (TC11) [6]) | LC50 (necessary concentration to kill 50% of the bacteria), TC11 (Shewanella sp. (TC11) [6]) | activity at 200 µM [8] | EC50 [8] | activity at 200 µM (Paracoccus sp. (4M6) [10]) | EC50 (Paracoccus sp. (4M6) [10]) | inhibition at 200 µM [11, 15] | also measured
CN(C)CCOc1ccc(CCn2cc(-c3ccc(-c4cn(CCc5ccc(OCCN(C)C)c(Br)c5)nn4)cc3)nn2)cc1Br [AS162, 2-(4-(2-(4-(4-(1-(4-(2-(dimethylamino)ethoxy)-3-bromophenethyl)-1H-1,2,3-triazol-4-yl)phenyl)-1H-1,2,3-triazol-1-yl)ethyl)-2-bromophenoxy)-N,N-dimethylethanamine] | 0% | 0.97 ± 0.8 µM | 97.6 µM | 19.2 | 66.1 µM | 12.9 | 265.7 | 257.7 µM | 48.81% | 93.35% | 92.92% | 97.73% | 97.30% | 26.5 | 334.3 µM | 14% | 5.1 ± 1 µM | 10.9 ± 8.1% | 5.1 ± 1.04 µM | ≥ 65% | inhibition of the adhesion of bacterial strain TC14 ([1]; 200 μM): totally inhibit; activity at 200 µM (Polaribacter sp. (TC5) [7]): 21.5 ± 6.6%; EC50 (Polaribacter sp. (TC5) [7]): 15.5 ± 0.1 µM; IS: LC50/EC50 (selectivity index), TC5 (Polaribacter sp. (TC5) [9]): 24.6; CC50 (Polaribacter sp. (TC5) [9]): 382 µM; EC50 compared with TBTO/ZINEB [11]: comparable to that of TBTO and lower than that of ZINEB; inhibition at 200 µM [11, 14]: ≥ 85%; activity at 200 µM (Shewanella sp. (TC11) [12]; read-out: % of adhesion at 200 μM, TC11): 4.3 ± 7.5%; EC50 (Shewanella sp. (TC11) [12]): 12.6 ± 5.1 µM; toxicity by LC50 values compared with TBTO/ZINEB [13]: less toxic than TBTO and ZINEB
CN(C)CCOc1ccc(CCn2cc(COCc3cn(CCc4ccc(OCCN(C)C)c(Br)c4)nn3)nn2)cc1Br [AS163, 2-(4-(2-(4-(((1-(4-(2-(dimethylamino)ethoxy)-3-bromophenethyl)-1H-1,2,3-triazol-4-yl)methoxy)methyl)-1H-1,2,3-triazol-1-yl)ethyl)-2-bromophenoxy)-N,N-dimethylethanamine] | 34.8 ± 2.7% | 91.8 ± 17.9 µM |  |  |  |  |  |  | 82.24% | 89.36% | 94.54% | 96.52% | 97.07% |  |  | 34.6 ± 5.1% | 102 ± 46.2 µM | 40.4 ± 7.8% | 146 ± 81.9 µM | ≥ 65% | 
Oc1ccc(CCn2cc(CNCc3cn(CCc4ccc(O)c(Br)c4)nn3)nn2)cc1Br [NT27] | 29.3 ± 7.5% | 59.9 ± 27.2 µM |  |  |  |  |  |  |  |  |  |  |  |  |  | 28.9 ± 17% | 80.3 ± 18.9 µM | 27.8 ± 16.3% | 88.3 ± 46.2 µM | ≥ 65% | 
Oc1ccc(CCn2cc(-c3ccc(-c4cn(CCc5ccc(O)c(I)c5)nn4)cc3)nn2)cc1I [SA43, 1,4 bis (1-(3-iodo-4-hydroxyphenethyl)-1H-1,2,3-triazol-4-yl) benzene] | 6.8 ± 1.2% | 20.7 ± 5.2 µM | 352 µM | 6.5 | 270 µM | 8.9 | 11.4 | 236.9 µM |  |  |  |  |  | 80.4 | 88.4 µM | 10.5 ± 12% | 30.3 ± 31.3 µM | 13.6 ± 8.9% | 53.8 ± 50.9 µM | ≥ 65% | activity at 200 µM (Polaribacter sp. (TC5) [7]): 23.8 ± 0.1%; EC50 (Polaribacter sp. (TC5) [7]): 58 ± 1.61 µM; IS: LC50/EC50 (selectivity index), TC5 (Polaribacter sp. (TC5) [9]): 5.5; CC50 (Polaribacter sp. (TC5) [9]): 320 µM; EC50 compared with TBTO/ZINEB [11]: comparable to that of ZINEB; inhibition at 200 µM [11, 14]: ≥ 85%; activity at 200 µM (Shewanella sp. (TC11) [12]; 200 μM, strain TC11, read-out: % of adhesion at 200 μM, TC11): 4.6 ± 0.1%; EC50 (Shewanella sp. (TC11) [12]): 1.1 ± 0.6 µM; toxicity by LC50 values compared with TBTO/ZINEB [13]: less toxic than ZINEB
